From patent publication EP0398427A1, “Antirhinoviral pyridazinamines” (priority 1989, dated 1990) come the findings set out here.

Experiment [1] has as its system Human Rhinovirus serotypes HRV- 2,-29,-39,-85,-9,-15,-51,-59,-63,-89 and -41. In words: Picornavirus Minimal Inhibitory Concentration test (cytopathic effect reduction assay), first panel of rhinoviruses. Format: cell-based. Conditions: Human rhinovirus sp., HeLa, read-out: Med₁. The procedure: (§1) The Minimal Inhibitory Concentration of the compounds of the present invention against the Human Rhinovirus strains (HRV) -2,-9,-14,-15,-29,-39,-41,-42,-45,-51 -59,-63,-70,-72-,-85,-86 and -89 was determined by a standard cytophatic effect reduction assay as follows. To each of the ninty six (96) wells of a microtiter 96 well tissue culture plate there was added 60 µl of a Ohio Hela cell maintenance medium [Eagle's Basal medium supplemented with 5% Foetal Calf Serum (FCS)]. To two wells there was added 60 µl of an appropriate starting dilution of a compound of formula (I) and two-fold dilutions were made to cover a wide range of compound concentrations. Subsequently there were added 120 µl of an infectious solution of virus in Eagle's Basal Medium with 2% Hepes buffer, 2% FCS and 30 mM MgCl₂ to all wells except cell and compound controls. Said infectious virus solution having a TCID₅₀-value (Tissue Culture Infectious Dose) of about 100.
(§2) The TCID₅₀-value is the dose of viruses which initiates a cytopathic effect in 50% of the inoculated cells. 150 µl of the thus obtained virus-compound mixtures were then transferred to microtitre plates with subconfluent Ohio Hela Cells, grown in 100 µl of maintenance medium. Appropriate virus controls, cell controls and compound controls were included in each test. Plates were incubated for 3 to 5 days at 33°C in 5% CO₂ atmosphere. […] The IC₅₀-value for each virus-compound series was taken as the concentration in ng/ml that protected 50% of the cells from cytopathic effects with respect to the untreated controls. In the standard test procedure, the compounds were tested against a first panel of rhinoviruses consisting of serotypes HRV- 2,-29,-39,-85,-9,-15,-51,-59,-63,-89 and -41 and the other panel consisting of HRV-42,-45,-14,-70,-72 and -86.
(§3) The IC₅₀-value for each rhinovirus serotype was determined, and the efficacy of each compound was determined in terms of the Med₁-value and Med₂-value, which is the medium value of the IC₅₀-values of all serotypes from the first and second panel respectively.
A general note: Cytopathic effects are the visible damage that an infection or toxin causes in cultured cells.

For experiment [2], the system named is HRV-42,-45,-14,-70,-72 and -86. In words: Picornavirus Minimal Inhibitory Concentration test (cytopathic effect reduction assay), second panel of rhinoviruses. Format: cell-based. Conditions: Human rhinovirus sp., HRV42, HeLa, read-out: Med₂. The protocol: as §1, §2, §3

Each structure is given as a SMILES string. Converted amounts (≈) assume the structure as drawn.

Consider `CCOC(=O)c1ccc2nc(CC3CCN(c4ccc(Cl)nn4)CC3)sc2c1` [Compound 2, ethyl 2-[[1-(6-chloro-3-pyridazinyl)-4-piperidinyl]methyl]-6-benzothiazolecarboxylate], for which the figures for the IC50 in experiment [1] and in experiment [2] were 0.031 µg/mL (≈ 0.0744 µM) and 0.067 µg/mL (≈ 0.161 µM), respectively.
For the molecule `CCOC(=O)c1ccc2oc(CCC3CCN(c4ccc(Cl)nn4)CC3)nc2c1` [Compound 4, ethyl 2-[2-[1-(6-chloro-3-pyridazinyl)-4-piperidinyl]ethyl]-5-benzoxazolecarboxylate], the IC50 in experiment [1] was determined as 0.088 µg/mL (≈ 0.212 µM); in experiment [2], 0.039 µg/mL (≈ 0.094 µM).
Consider `CCOC(=O)c1ccc(OCCC2CCN(c3ccc(C)nn3)CC2)s1` [Compound 7, ethyl 5-[2-[1-(6-methyl-3-pyridazinyl)-4-piperidinyl]ethoxy]-2-thiophenecarboxylate], for which the IC50 was 0.007 µg/mL (≈ 0.0186 µM) in experiment [1] and 0.185 µg/mL (≈ 0.493 µM) in experiment [2].
